Laboratory results from US7601846B2, “Compounds having activity as inhibitors of apoptosis” (The Regents of the University of California, priority 2001, dated 2009).
Structures can show the parent of a compound that is named as a salt. Where two headings read alike, the source gives them in different places.

How the values were obtained:
Murine thymocytes = assay: Dexamethasone-induced thymocyte apoptosis assay (DiOC6/PI staining, flow cytometry); type: cell-based; conditions: Mus musculus, 6 hours; for EC50: 5 μM dexamethasone; for viability at 10 µM: compound 10 μM; for viability at 10 µM / viability at 5 µM: challenged with DEX, control 72 ± 4, DEX alone 36 ± 7, read-out: Average cell survival (%) Average alive cells (%); for viability at 5 µM: compound tested at 5 μM (footnote b)
Procedure: All of the compounds were screened in the thymocyte assay for cytotoxicity and their ability to prevent dexamethasone-induced cell death. Murine thymocytes were exposed to 10 μM or 5 μM of each compound in the presence or absence of DEX for six hours and then assayed for their in vitro viability by 3,3′-dihexyloxacarbocyanine iodide (DiOC6) and propidium iodide (PI) staining, and flow cytometry. When cell death signals converge on the mitochondria, there is a loss of the inner mitochondrial membrane potential and cells can no longer retain the dye DiOC6 as an indicator of apoptosis. Once cells lose the integrity of the outer cell membrane, then the dye propidium iodide is no longer excluded from these cells. The percentage of viable cells, which retained DiOC6 and excluded PI was compared to cells treated with DEX alone.
Apoptosis assays. Thymocytes were harvested from young C57B1/6 mice and cultured at 37° C. in 5% CO2 in RPMI 1640 containing 10% FBS, 1% Penicillin/Streptomycin (Gibco BRL, Rockville, Md.). Thymocytes were plated at a density of 10^7 cells/mL and pre-incubated with 5-10 μM of each compound (from 10 mM stock in DMSO) for 30 minutes before induction of apoptosis. Apoptosis was induced with 5 μM dexamethasone or by exposure to 6 Gy gamma radiation. After 6 hours, cell apoptosis was assayed by propidium iodide (PI) and 3,3′ dihexyloxacarbocyanine iodide (DiOC6) staining. The cells were removed from the plate and incubated for 30 minutes in medium with 40 nM DiOC6 and 5 μg/mL PI and then analyzed by flow cytometry in a FACS caliber (Beckton-Dickinson, San Jose, Calif.). Viable cells had high DiOC6 (FL-1) and low PI (FL-3), whereas apoptotic cells had low DiOC6 (FL-1) and low PI (FL-3). To evaluate the EC50s the thymocytes were pre-exposed to graded concentrations of selected compounds for 30 minutes and then apoptosis was induced with 5 μM dexamethasone. After 6 hours the cells were harvested and stained as above.
The concentration (EC50) of each compound that inhibited dexamethasone-induced cell death by 50% was determined by nonlinear regression fitting of the data to a one-site model. Pseudo Hill slopes were determined by nonlinear regression fit of the data to a sigmoidal dose-response equation (variable slope): % viability=minimum % viability+(maximum−minimum % viability)/[1+10(log EC50−X)^n], where X is the logarithm of inhibitor concentration, and n is the pseudo Hill slope and the maximum and minimum % viability were experimentally determined after dexamethasone exposure and drug treatment. EC50 values and 95% confidence intervals (CI) were derived from the sigmoid fits to the percent control transformed data shown using GraphPad Prism version 4.0b for Macintosh (GraphPad Software, San Diego, Calif.).

[1] = system: spontaneous apoptosis and fludarabine-induced apoptosis; assay: Protection against spontaneous and fludarabine-induced apoptosis (FIG. 2); type: cell-based
[2] = system: Bax, PUMA, noxa, DR5 (killer) mRNA; assay: Modulation of proapoptotic genes by real time PCR in DEX-treated thymocytes; type: cell-based, mouse
Procedure: Four proapoptotic genes were tested by real time PCR. […] PUMA and noxa belong to the BH3-only protein subclass while Bax is a multidomain member of the family. DR5 (also called killer) is an apoptosis-inducing membrane receptor for tumor necrosis factor-related apoptosis-inducing ligand (also called TRAIL and Apo2 ligand). DR5 is a transcriptional target of p53, and its over expression induces cell death in vitro (Finnberg et al., Molecular and Cellular Biology 2005, 25, 2000-2013).

PUMA = PUMA protein expression in DEX-treated thymocytes (western blot); type: cell-based, mouse; conditions: thymocytes pretreated with 10 μM compound, 5 μM dexamethasone 6 hours, FIG. 6
Procedure: Thymocytes were pretreated with 10 μM of the indicated compounds and then exposed to 5 μM of dexamethasone for 6 hours. The cytosolic proteins were fractionated and then separated on a 4-12% gradient gel by SDS-PAGE and transferred to a PDVF membrane, which was probed with antibodies to PUMA and actin.
After removal of medium, cells were disrupted in lysis buffer (10 mM HEPES pH 7.9, 10 mM KCl, 0.1 mM EDTA, 0.1 mM EGTA, 1 mM dithiothreitol, 0.5 mM phenylmethylsulfonyl fluoride, and 0.6% NP-40) on ice. The nuclei were separated by centrifugation and the cytoplasmic sample removed. The nuclear pellets were resuspended in (20 mM HEPES pH 7.9, 0.4 M NaCl, 1.0 mM EDTA, 1.0 mM EGTA, 1 mM dithiothreitol, 0.1 mM phenylmethylsulfonyl fluoride) and the insoluble material was removed by centrifugation. The samples were heated to 70° C. for 10 minutes in loading buffer with 10 mM DTT. Each lane of an SDS-PAGE gel was loaded with 20 μg of protein. After electrophoresis, the proteins were transferred to a polyvinylidene difluoride (PVDF) membrane, blocked with 2% I-block™ (Tropix Inc, Bedford, Mass.) containing 0.05% Tween-20 in PBS, and then incubated with anti-PUMA (AbCam, Inc., Cambridge, Mass.). Horseradish peroxidase-conjugated anti-IgG (Santa Cruz Laboratories, Santa Cruz, Calif.) was used as the secondary antibody. […]

[3] = cited from earlier work
[4] = Table 2, 30 minutes pre-exposure, read-out: EDEC50 (μM) of compounds in thymocyte apoptosis assay (first value in cell) (converted)
[5] = Table 1, 30 minutes pre-exposure, read-out: EDEC50 (μM) of compounds in thymocyte apoptosis assay
[6] = mouse thymocytes treated with DEX, FIG. 5

## c1ccc(-c2ccc(-c3cn4c(n3)sc3ccccc34)cc2)cc1 [Compound 10]
Murine thymocytes; [4]
  EC50: 8.12 µM
Murine thymocytes
  viability at 10 µM: 59%

## c1ccc2c(c1)sc1nc(-c3ccc(C4CCCC4)cc3)cn12 [Compound 8, 2-(4-Cyclopentyl-phenyl)-imidzxo[2,1-b]benzothiazoles hydrobromide salt]
Murine thymocytes
  viability at 10 µM: 36%

## Cc1ccc(-c2cn3c4c(sc3n2)CCCC4)cc1 [IBT]
[1]
  Effect against fludarabine-induced apoptosis: protective effect
  Effect against spontaneous apoptosis: protective effect

## c1ccc(-c2cn3c(n2)sc2ccccc23)cc1 [Compound 12]
Murine thymocytes; [5]
  EC50: 10.2 µM
Murine thymocytes
  viability at 10 µM: 73%

## c1coc(-c2cn3c(n2)sc2ccccc23)c1 [Compound 3, 2-Furan-2-yl-imidazo[2,1-b]benzothiazole hydrobromide salt]
Murine thymocytes
  viability at 10 µM: 16%

## Cc1ccc(-c2cn3c(n2)sc2cc(N)ccc23)cc1 [Compound 7, 2-p-Tolyl-imidazo[2,1-b]benzothiazol-7-ylamine]
Murine thymocytes
  viability at 10 µM: 27%

## C[C@@H]1C[C@H]2[C@@H]3CCC4=CC(=O)C=C[C@]4(C)[C@@]3(F)[C@@H](O)C[C@]2(C)[C@@]1(O)C(=O)CO [Dexamethasone, reference compound]
[2]; mouse thymocytes, DEX treatment alone
  Increase of PUMA mRNA upon treatment: over 9 fold

## Cc1ccc(C(=O)Cn2c3c(sc2=N)CCCC3)cc1 [PFT-α, 2-(2-imino-4,5,6,7-tetrahydro-benzothiazol-3-yl)-1-p-tolyl-ethanone hydrobromide, reference compound]
PUMA
  PUMA protein expression (western blot): partial inhibition
[3]
  Stability under physiologic conditions: not stable

## c1ccc2cc(-c3ccc(-c4cn5c(n4)sc4ccccc45)cc3)ccc2c1 [Compound 14]
Murine thymocytes; [4]
  EC50: 4.02 µM
Murine thymocytes
  viability at 5 µM: 75%

## Cc1ccc(-c2cn3c(n2)sc2cc(O)ccc23)cc1 [Compound 4, 2-p-Tolyl-benzo[d]imidazo[2,1-b]thiazol-7-ol]
Murine thymocytes
  viability at 5 µM: 19%

## Brc1ccc(-c2cn3c(n2)sc2ccccc23)cc1 [Compound 5]
Murine thymocytes
  viability at 10 µM: 22%

## Cc1ccc(-c2cn3c(n2)sc2ccccc23)cc1 [Compound 13]
Murine thymocytes; [4]
  EC50: 1.22 µM
Murine thymocytes
  viability at 5 µM: 73%

## COc1ccc2c(c1)sc1nc(-c3ccc(C)cc3)cn12 [Compound 11, 7-Methoxy-2-p-tolyl-imidazo[2,1-b]benzothiazole hydrobromide salt]
Murine thymocytes; [5]
  EC50: 4.44 µM
Murine thymocytes
  viability at 5 µM: 68%

## Br.c1ccc2c(c1)sc1nc(-c3ccc(N4CCCC4)cc3)cn12 [Compound 15, 2-(4-Pyrrolidin-1-yl-phenyl)-benzo[d]imidazo[2,1-b]thiazole hydrobromide salt]
PUMA
  PUMA protein expression (western blot): total inhibition
Murine thymocytes; [4]
  EC50: 0.35 µM
Murine thymocytes
  viability at 5 µM: 78%
[2]; [6]
  mRNA level of bax and killer relative to control: below it
  mRNA level of proapoptotic genes (Bax, PUMA, noxa, DR5) relative to control: close to that of the control

## Cc1ccc(-c2cn3c(n2)sc2cc(Br)ccc23)cc1 [Compound 9, 7-Bromo-2-p-tolylimidazo[2,1-b]benzothiazole hydrobromide salt]
Murine thymocytes
  viability at 10 µM: 39%

## Cc1ccc(-c2nc3sc4ccccc4n3c2Br)cc1 [Compound 6, 3-Bromo-2-p-tolyl-imidazo[2,1-b]benzothiazole]
Murine thymocytes
  viability at 5 µM: 24%
